Data from patent US11814367B2, “Inhibitors of glycogen synthase 1 (GYS1) and methods of use thereof” (Maze Therapeutics, Inc., priority 2021, dated 2023).

Assays:
[1] = test system: hGYS1 enzyme / glycogen synthesis in HeLa cells; experiment: GYS1 cell based assay (glycogen synthesis, Glucose-glo); set-up: species or system human; details: 24 h incubation, 20 mM glucose, geometric mean of at least 2 runs
In short: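 HeLa cells starved 24 h in medium containing only 1× Glutamax were plated onto compound in medium with 20 mM glucose (1% DMSO final) for 24 h, 37 °C, 5% CO2. Acid lysates were Tris-quenched, glucoamylase-digested (pH 5.3, 1 h, 37 °C) and read by Glucose-glo luminescence. IC50 came from Hill fits, as geometric mean of ≥2 runs.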

[2] = target: hGYS2 enzyme (recombinant hGYS2/GN1 protein) (Homo sapiens (Human), UniProt P54840); experiment: GYS2 coupled enzyme assay (PK/LDH); assay type: biochemical; details: geometric mean of at least 2 assay runs on separate days, read-out: Avg_IC50
In short: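 IC50 came from Hill fits of duplicate percent inhibition, based on control-normalized slopes of 340 nm NADH decline read each minute for 10 min. The reaction held recombinant hGYS2/GN1 (200 nM) with glycogen, UDP-glucose, G6P and PEP, plus PK/LDH coupling at pH 7.5 and 2.5% DMSO.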

[3] = target: hGYS1 enzyme (recombinant hGYS1/GN1 protein) (Homo sapiens (Human), UniProt P13807); experiment: GYS1 coupled enzyme assay (PK/LDH); assay type: biochemical; details: hGYS1/GN1 50 nM, UDP-Glucose 0.8 mM, G6P 1 mM; geometric mean of at least 2 runs
Chain of hGYS1 enzyme (recombinant hGYS1/GN1 protein) (P13807 whole entry): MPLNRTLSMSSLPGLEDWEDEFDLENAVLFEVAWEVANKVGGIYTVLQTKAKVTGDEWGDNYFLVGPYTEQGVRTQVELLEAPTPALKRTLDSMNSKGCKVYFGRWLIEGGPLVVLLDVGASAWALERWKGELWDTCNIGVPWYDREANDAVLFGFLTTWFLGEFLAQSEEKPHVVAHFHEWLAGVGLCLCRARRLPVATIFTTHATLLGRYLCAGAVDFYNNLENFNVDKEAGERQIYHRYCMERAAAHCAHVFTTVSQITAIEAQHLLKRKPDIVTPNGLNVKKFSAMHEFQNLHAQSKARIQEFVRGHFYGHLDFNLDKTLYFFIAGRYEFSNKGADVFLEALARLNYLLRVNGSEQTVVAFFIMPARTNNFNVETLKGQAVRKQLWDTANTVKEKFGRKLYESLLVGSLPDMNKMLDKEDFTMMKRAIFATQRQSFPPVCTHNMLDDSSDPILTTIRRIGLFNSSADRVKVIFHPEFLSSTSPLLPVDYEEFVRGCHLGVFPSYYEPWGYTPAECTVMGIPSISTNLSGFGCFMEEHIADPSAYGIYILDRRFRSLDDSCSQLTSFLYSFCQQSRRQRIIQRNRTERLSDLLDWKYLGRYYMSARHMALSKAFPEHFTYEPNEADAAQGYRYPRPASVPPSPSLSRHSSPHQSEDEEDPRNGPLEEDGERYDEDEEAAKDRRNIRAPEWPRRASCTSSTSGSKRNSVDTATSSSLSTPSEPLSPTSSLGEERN
Chain of hGYS1 enzyme (recombinant hGYS1/GN1 protein) (P46976 whole entry partner): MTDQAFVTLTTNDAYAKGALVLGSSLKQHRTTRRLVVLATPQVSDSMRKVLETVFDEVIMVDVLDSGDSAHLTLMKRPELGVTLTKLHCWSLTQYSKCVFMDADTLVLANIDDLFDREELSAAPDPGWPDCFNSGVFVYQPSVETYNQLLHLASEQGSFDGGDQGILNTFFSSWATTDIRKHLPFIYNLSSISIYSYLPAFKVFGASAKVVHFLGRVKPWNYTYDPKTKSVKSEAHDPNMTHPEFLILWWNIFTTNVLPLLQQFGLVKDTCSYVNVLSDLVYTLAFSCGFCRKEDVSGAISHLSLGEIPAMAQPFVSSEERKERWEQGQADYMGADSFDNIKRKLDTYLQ

Chain of hGYS2 enzyme (recombinant hGYS2/GN1 protein) (P54840 whole entry): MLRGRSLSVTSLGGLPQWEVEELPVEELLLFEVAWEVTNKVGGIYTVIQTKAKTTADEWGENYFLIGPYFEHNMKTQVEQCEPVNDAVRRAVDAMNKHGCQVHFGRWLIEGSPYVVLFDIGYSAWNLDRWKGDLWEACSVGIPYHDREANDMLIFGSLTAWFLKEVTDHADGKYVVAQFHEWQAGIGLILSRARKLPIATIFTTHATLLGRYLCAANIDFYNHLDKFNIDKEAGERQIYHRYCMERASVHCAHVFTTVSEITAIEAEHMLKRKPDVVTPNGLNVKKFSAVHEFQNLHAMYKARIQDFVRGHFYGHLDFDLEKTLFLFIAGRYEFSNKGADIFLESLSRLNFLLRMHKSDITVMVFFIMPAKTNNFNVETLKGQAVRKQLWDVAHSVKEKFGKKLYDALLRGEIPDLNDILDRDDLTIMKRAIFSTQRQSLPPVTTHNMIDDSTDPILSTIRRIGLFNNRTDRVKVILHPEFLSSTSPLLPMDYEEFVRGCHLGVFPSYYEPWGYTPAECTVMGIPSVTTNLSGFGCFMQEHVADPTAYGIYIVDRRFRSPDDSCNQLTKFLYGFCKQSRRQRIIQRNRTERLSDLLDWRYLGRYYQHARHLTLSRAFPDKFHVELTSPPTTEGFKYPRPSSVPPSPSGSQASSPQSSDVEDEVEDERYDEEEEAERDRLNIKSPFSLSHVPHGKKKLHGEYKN
Chain of hGYS2 enzyme (recombinant hGYS2/GN1 protein) (P46976 whole entry partner): as the sequence (P46976 whole entry partner) above

Row | Structure (SMILES) | IC50 ([1]; Homo sapiens, HeLa, 24 h) [nM] | IC50 [2] [nM] | IC50 [3] [nM] | IC50 [1] [nM]
1 | CC(C(=O)N1C[C@H](F)C[C@H]1C(=O)N[C@@H](c1ccccc1)c1ccc(C2CC2)c(F)c1)n1cnc2ccccc21 (single isomer, unassigned) [Compound 809, (2S,4R)-1-[(2S) or (2R)-2-(1H-1,3-benzodiazol-1-yl)propanoyl]-N-[(S)-(4-cyclopropyl-3-fluorophenyl)(phenyl)methyl]-4-fluoropyrrolidine-2-carboxamide] |  | > 100000 | 7 | 190
2 | CC(C)c1ccc([C@@H](NC(=O)[C@@H]2C[C@@H](F)CN2C(=O)Cn2ccc(C(F)(F)F)n2)c2ccccc2)nc1F [Compound 790, (2S,4R)-4-fluoro-N-[(S)-[6-fluoro-5-(propan-2-yl)pyridin-2-yl](phenyl)methyl]-1-{2-[3-(trifluoromethyl)-1H-pyrazol-1-yl]acetyl} pyrrolidine-2-carboxamide] | 250 | > 100000 | 8 | 
3 | O=C(N[C@@H](c1ccccc1)c1ccc(C2CC(F)(F)C2)c(F)c1)[C@@H]1C[C@@H](F)CN1C(=O)CNC(=O)N1CCC1 [Compound 544, (2S,4R)-1-((azetidine-1-carbonyl)glycyl)-N—((S)-(4-(3,3-difluorocyclobutyl)-3-fluorophenyl)(phenyl)methyl)-4-fluoropyrrolidine-2-carboxamide] | 260 | > 100000 | 11 | 
4 | CC(=O)N1CCC2(CCC(C(=O)N3C[C@H](F)C[C@H]3C(=O)N[C@@H](c3ccccc3)c3ccc(C(C)C)cc3)C2)CC1 (stereo partly drawn) [Compound 184, (2S,4R)-1-{8-acetyl-8-azaspiro[4.5]decane-2-carbonyl}-4-fluoro-N-[(S)-phenyl[4-(propan-2-yl)phenyl]methyl]pyrrolidine-2-carboxamide] | 3030 | > 100000 | 75 | 
5 | CC(C)c1ccc([C@@H](NC(=O)[C@@H]2C[C@@H](F)CN2C(=O)Cc2cnn(C)c2)c2ccccc2)cc1F [Compound 355, (2S,4R)-4-fluoro-N-[(S)-[3-fluoro-4-(propan-2-yl)phenyl](phenyl)methyl]-1-[2-(1-methyl-1H-pyrazol-4-yl)acetyl]pyrrolidine-2-carboxamide] | 160 | > 100000 | 18 | 
6 | CC(C)c1ccc([C@@H](NC(=O)[C@@H]2C[C@@H](F)CN2C(=O)Cn2nncc2C(F)(F)F)c2ccccc2)cc1F [Compound 322, (2S,4R)-4-fluoro-N—((S)-(3-fluoro-4-isopropylphenyl)(phenyl)methyl)-1-(2-(5-(trifluoromethyl)-1H-1,2,3-triazol-1-yl)acetyl)pyrrolidine-2-carboxamide] | 290 | > 100000 | 13 | 
7 | Cn1c(CC(=O)N2C[C@H](F)C[C@H]2C(=O)N[C@@H](c2ccccc2)c2ccc(C3CC3)c(F)n2)noc1=O [Compound 719, (2S,4R)-N-[(S)-(5-cyclopropyl-6-fluoropyridin-2-yl)(phenyl)methyl]-4-fluoro-1-[2-(4-methyl-5-oxo-4,5-dihydro-1,2,4-oxadiazol-3-yl)acetyl]pyrrolidine-2-carboxamide] | 2220 | > 100000 | 254 | 
8 | Cn1cc(CC(=O)N2C[C@H](F)C[C@H]2C(=O)N[C@@H](c2ccccc2)c2ccc(C3CC3)c(F)c2)c2ccccc21 [Compound 463, (2S,4R)-N-[(S)-(4-cyclopropyl-3-fluorophenyl)(phenyl)methyl]-4-fluoro-1-[2-(1-methyl-1H-indol-3-yl)acetyl]pyrrolidine-2-carboxamide] | 670 | > 100000 | 25 | 
9 | Cc1cc(C(NC(=O)[C@@H]2C[C@@H](F)CN2C(=O)Cc2cnn[nH]2)c2ccccc2)ncc1C(C)C (single isomer, unassigned) [Compound 604, (2S,4R)-4-fluoro-N-[(S) or (R)-[4-methyl-5-(propan-2-yl)pyridin-2-yl](phenyl)methyl]-1-[2-(1H-1,2,3-triazol-5-yl)acetyl]pyrrolidine-2-carboxamide] | 1590 | > 100000 | 176 | 

Next, values leading:

Row | IC50 ([1]; Homo sapiens, HeLa, 24 h) [nM] | IC50 [2] [nM] | IC50 [3] [nM] | IC50 [1] [nM] | Structure (SMILES)
10 | 240 | > 100000 | 11 |  | CCn1cccc(CC(=O)N2C[C@H](F)C[C@H]2C(=O)N[C@@H](c2ccccc2)c2ccc(C(C)C)c(F)n2)c1=O [Compound 795, (2S,4R)-1-[2-(1-ethyl-2-oxo-1,2-dihydropyridin-3-yl)acetyl]-4-fluoro-N-[(S)-[6-fluoro-5-(propan-2-yl)pyridin-2-yl](phenyl)methyl] pyrrolidine-2-carboxamide]
11 | 280 | > 100000 | 19 |  | Cc1nc2ccccc2n1CC(=O)N1C[C@H](F)C[C@H]1C(=O)N[C@@H](c1ccccc1)c1ccc(C2(C)CC2)c(F)n1 [Compound 593, (2S,4R)-4-fluoro-N-[(S)-[6-fluoro-5-(1-methylcyclopropyl)pyridin-2-yl](phenyl)methyl]-1-[2-(2-methyl-1H-1,3-benzodiazol-1-yl)acetyl]pyrrolidine-2-carboxamide]
12 |  | > 100000 | 22 | 190 | CC(C)c1ccc([C@@H](NC(=O)[C@@H]2C[C@@H](F)CN2C(=O)C(O)c2cnn[nH]2)c2ccccc2)cc1F (single isomer, unassigned) [Compound 774, (2S,4R)-4-fluoro-N-[(S)-[3-fluoro-4-(propan-2-yl)phenyl](phenyl)methyl]-1-[(2S) or (2R)-2-hydroxy-2-(1H-1,2,3-triazol-5-yl)acetyl]pyrrolidine-2-carboxamide]
13 | 780 | > 100000 | 20 |  | CCn1cc(CC(=O)N2C[C@H](F)C[C@H]2C(=O)N[C@@H](c2ccccc2)c2ccc(C3CC3)c(F)n2)ccc1=O [Compound 736, (2S,4R)-N-[(S)-(5-cyclopropyl-6-fluoropyridin-2-yl)(phenyl)methyl]-1-[2-(1-ethyl-6-oxo-1,6-dihydropyridin-3-yl)acetyl]-4-fluoropyrrolidine-2-carboxamide]
14 | 720 | > 100000 | 50 |  | CC1(c2ccc([C@@H](NC(=O)[C@@H]3C[C@@H](F)CN3C(=O)Cn3nnc4ccccc43)c3ccccc3)nc2F)CC1 [Compound 594, (2S,4R)-1-[2-(1H-1,2,3-benzotriazol-1-yl)acetyl]-4-fluoro-N-[(S)-[6-fluoro-5-(1-methylcyclopropyl)pyridin-2-yl](phenyl)methyl] pyrrolidine-2-carboxamide]
15 | 120 | > 100000 | 8 |  | CC(C)c1ccc([C@@H](NC(=O)[C@@H]2C[C@@H](F)CN2C(=O)Cn2cc(N(C)C)nn2)c2ccccc2)nc1F [Compound 393, (2S,4R)-1-{2-[4-(dimethylamino)-1H-1,2,3-triazol-1-yl]acetyl}-4-fluoro-N-[(S)-[6-fluoro-5-(propan-2-yl)pyridin-2-yl](phenyl)methyl] pyrrolidine-2-carboxamide]
16 | 1140 | > 100000 | 139 |  | Cc1cc(C(NC(=O)[C@@H]2C[C@@H](F)CN2C(=O)Cc2c(C)nn(C)c2C)c2cccnc2N)ccc1C(C)C (single isomer, unassigned) [Compound 625, (2S,4R)-N-[(R) or (S)-(2-aminopyridin-3-yl)[3-methyl-4-(propan-2-yl)phenyl]methyl]-4-fluoro-1-[2-(1,3,5-trimethyl-1H-pyrazol-4-yl)acetyl]pyrrolidine-2-carboxamide]
